Test results: patent US12281122B1, “PI3K inhibitors” (Cogent Biosciences, Inc., priority 2023, dated 2025)

How the values were obtained:
[1] = system: SKBR3 (PI3Kα-Wild Type) cell line; assay: HTRF phospho-AKT(S473) cell assay in SKBR3 cells; format: cell-based, human
Outline: (§1)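 T47D (PI3Kα-H1047R; RPMI, 10% FBS, insulin) and SKBR3 (wild-type PI3Kα; McCoy's 5A, 10% FBS) cells treated 2 h at 37 °C with 12-point 1:3 dilutions, top 5 μM and 10 μM respectively, ≤0.5% DMSO. SKBR3 stimulated with 70 ng/ml PDGF-BB for the last 15 min; lysate pAKT(S473) by HTRF, IC50 from curves.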

[2] = system: T47D (PI3Kα-H1047R) cell line; assay: HTRF phospho-AKT(S473) cell assay in T47D cells; format: cell-based, human
Outline: as §1

[3] = Homo sapiens, SK-BR-3; HTRF phospho-AKT(S473), SKBR3 (PI3Kα-Wild Type) cells, 2 hours compound incubation, PDGF-BB stimulated
[4] = Homo sapiens; HTRF phospho-AKT(S473), T47D (PI3Kα-H1047R) cells, 2 hours compound incubation
[5] = Homo sapiens, SK-BR-3; SKBR3 (PI3Kα-Wild Type) cells, HTRF phospho-AKT(S473), 2 hours compound incubation, PDGF-BB stimulated
[6] = Homo sapiens; T47D (PI3Kα-H1047R) cells, HTRF phospho-AKT(S473), 2 hours compound incubation

`Cc1cc([C@@H](C)Nc2ccc(Cl)nc2C(=O)NS(C)(=O)=O)c2nc(N3CCC(c4ccn(C(F)(F)F)n4)CC3)n(C)c(=O)c2c1` [Compound 445, (R)-6-chloro-3-((1-(3,6-dimethyl-4-oxo-2-(4-(1-(trifluoromethyl)-1H-pyrazol-3-yl)piperidin-1-yl)-3,4-dihydroquinazolin-8-yl)ethyl)amino)-N-(methylsulfonyl) picolinamide] was tested, and the IC50 [1, 3] was ≥ 5000 nM and the IC50 [2, 4] was 250 to 500 nM.
An IC50 [1, 5] of 1000 to 5000 nM and an IC50 [2, 6] of 250 to 500 nM were found for `COc1cccnc1-n1cc2c(n1)CN(c1nc3c([C@@H](C)Nc4ccc(Cl)nc4C(=O)NS(C)(=O)=O)cc(C)cc3c(=O)n1C)C2` [Compound 327, (R)-6-chloro-3-((1-(2-(2-(3-methoxypyridin-2-yl)-2,6-dihydropyrrolo[3,4-c]pyrazol-5(4H)-yl)-3,6-dimethyl-4-oxo-3,4-dihydroquinazolin-8-yl)ethyl)amino)-N-(methylsulfonyl) picolinamide] in this work.
With `Cc1cc([C@@H](C)Nc2ccc(Cl)nc2C(=O)NS(C)(=O)=O)c2nc(-c3ccnc(O[C@@H]4CCN(C)CC4(F)F)c3)n(C)c(=O)c2c1` [Compound 809, 6-chloro-3-(((R)-1-(2-(2-(((R)-3,3-difluoro-1-methylpiperidin-4-yl)oxy)pyridin-4-yl)-3,6-dimethyl-4-oxo-3,4-dihydroquinazolin-8-yl)ethyl)amino)-N-(methylsulfonyl) picolinamide] the IC50 [1, 3] was ≥ 5000 nM and the IC50 [2, 4] was 250 to 500 nM.
`Cc1cc([C@@H](C)Nc2ccc(Cl)nc2C(=O)NS(C)(=O)=O)c2nc(N3C[C@@H]4C[C@H]3C[C@@H]4c3nn(C)cc3F)n(C)c(=O)c2c1` (relative stereo) [Compound 444, 6-chloro-3-(((R)-1-(2-((1R*,4S*,5R*)-5-(4-fluoro-1-methyl-1H-pyrazol-3-yl)-2-azabicyclo[2.2.1]heptan-2-yl)-3,6-dimethyl-4-oxo-3,4-dihydroquinazolin-8-yl)ethyl)amino)-N-(methylsulfonyl) picolinamide] was tested, and the IC50 [1, 3] was ≥ 5000 nM and the IC50 [2, 4] was 250 to 500 nM.
With `Cc1cc([C@@H](C)Nc2ccc(Cl)nc2C(=O)NS(C)(=O)=O)c2nc(-c3ccc4nn(CCO)cc4c3)n(C)c(=O)c2c1` [Compound 797, (R)-6-chloro-3-((1-(2-(2-(2-hydroxyethyl)-2H-indazol-5-yl)-3,6-dimethyl-4-oxo-3,4-dihydroquinazolin-8-yl)ethyl)amino)-N-(methylsulfonyl) picolinamide] the IC50 [1, 3] was 1000 to 5000 nM and the IC50 [2, 4] was < 250 nM.
For `Cc1cc([C@@H](C)Nc2ccc(Cl)nc2C(=O)NS(C)(=O)=O)c2nc(-c3ccn(-c4ccn(C)n4)c(=O)c3)n(C)c(=O)c2c1` [Compound 807, (R)-6-chloro-3-((1-(3,6-dimethyl-2-(1-(1-methyl-1H-pyrazol-3-yl)-2-oxo-1,2-dihydropyridin-4-yl)-4-oxo-3,4-dihydroquinazolin-8-yl)ethyl)amino)-N-(methylsulfonyl) picolinamide], the IC50 [1, 3] was ≥ 5000 nM and the IC50 [2, 4] was 250 to 500 nM.
With `Cc1cc([C@@H](C)Nc2ccc(Cl)nc2C(=O)NS(C)(=O)=O)c2nc(-c3ccc(-c4ccn(C)n4)nc3)n(C)c(=O)c2c1` [Compound 243, (R)-6-chloro-3-((1-(3,6-dimethyl-2-(6-(1-methyl-1H-pyrazol-3-yl)pyridin-3-yl)-4-oxo-3,4-dihydroquinazolin-8-yl)ethyl)amino)-N-(methylsulfonyl) picolinamide] the IC50 [1, 5] was 1000 to 5000 nM and the IC50 [2, 6] was < 250 nM.
In the case of `Cc1cc([C@@H](C)Nc2ccc(Cl)nc2C(=O)NS(C)(=O)=O)c2nc(N3CCC(c4ncc(C(F)(F)F)cn4)CC3)n(C)c(=O)c2c1` [Compound 630, (R)-6-chloro-3-((1-(3,6-dimethyl-4-oxo-2-(4-(5-(trifluoromethyl)pyrimidin-2-yl)piperidin-1-yl)-3,4-dihydroquinazolin-8-yl)ethyl)amino)-N-(methylsulfonyl) picolinamide], the IC50 [1, 3] is reported as ≥ 5000 nM and the IC50 [2, 4] is reported as 500 to 1000 nM.
